Test results: US20250099634A1, “METHOD OF TREATING CANCER” (Novartis AG, priority 2023, published 2025)

Legend:
Type in all cases: in vivo, human
[1] = NETTER-2 worst post-baseline biochemistry abnormalities based on CTC grades (Safety Set)
From the text: The laboratory assessments require that blood samples for hematology and blood chemistry, and a urine sample for urinalysis are taken. Laboratory assessments will be performed at the investigational site.
Blood tests performed 4 weeks after any treatment cannot serve as baseline values for the next treatment.
All laboratory data will be listed by treatment group, subject, and visit/time and if normal ranges are available abnormalities will be flagged. Summary statistics will be provided by treatment and visit/time. Shift tables using the low/normal/high/(low and high) classification will be used to compare baseline to the worst on-treatment value.
Grading of laboratory values will be assigned programmatically as per NCI Common Terminology Criteria for Adverse Events (CTCAE) version 5.0 or current version. The calculation of CTCAE grades will be based on the observed laboratory values only, clinical assessments will not be taken into account.
The following summaries will be generated separately for hematology, and biochemistry tests: • 1. Listing of all laboratory data with values flagged to show the corresponding CTCAE grades if applicable and the classifications relative to the laboratory normal ranges • 2. For laboratory tests where grades are defined by CTCAE, • 3. Worst post-baseline CTCAE grade (regardless of the baseline status). Each subject will be counted only once for the worst grade observed post-baseline. • 4. Shift tables using CTCAE grades to compare baseline to the worst on-treatment value • 5. For laboratory tests where grades are not defined by CTCAE, • 6. Shift tables using the low/normal/high/(low and high) classification to compare baseline to the worst on-treatment value.

[2] = NETTER-2 subject disposition: discontinuation of randomized treatment phase (Full Analysis Set)
From the text: The discontinuation of either study treatments in both arms (Lutathera or octreotide long-acting) is not a reason for patient's withdrawal either from the clinical/tumor assessments until tumor progression, or for early study termination. However, in case of a patient's withdrawal from the clinical/tumor assessments or early study termination (based on either the patient's or the Investigator's decision), patients will undergo all exams scheduled for the End of Treatment (EOT) visit.
The Full Analysis Set (FAS) comprises all subjects to whom study treatment has been assigned by randomization. According to the intent to treat principle, subjects will be analyzed according to the treatment and strata they have been assigned to during the randomization procedure.

[3] = NETTER-2 deaths (Safety Set); details: for subjects died within 30 days after the last dose: randomized treatment period
[4] = test system: Grade 2 and Grade 3 advanced GEP-NET; assay: NETTER-2 best overall response, ORR and DCR, central review using RECIST 1.1; details: for ORR: central assessment
From the text: Objective Response Rate (ORR) will be calculated as the rate of patients with a best overall response of partial response (PR) or complete response (CR). Response duration will be calculated from the time of initial response until documented tumor progression. The Duration of Response (DOR) is defined as the time from initially meeting the criteria for response (CR or PR) until the time of progression by RECIST or death due to underlying disease. DOR will be reported descriptively for each group without comparison between groups.
Overall response rate (ORR) is defined as the proportion of subjects with best overall response (BOR) of complete response (CR) or partial response (PR), as per central review and according to RECIST 1.1.
ORR will be calculated based on the FAS and according to the ITT principle. ORR and its 95% confidence interval will be presented by treatment group. The Cochran-Mantel-Haenszel chi-square test, stratified by the randomization stratification factors, will be used to compare ORR between the two treatment groups, at the 1-sided 2.5% level of significance. As a supportive analysis, ORR as per local review will be presented by treatment group, along with 95% confidence intervals.
More precisely, it counts the presence of at least one confirmed CR or confirmed PR or SD. The DCR will be calculated based on FAS according to the ITT principle. DCR and its 95% confidence interval will be presented by treatment group. The Cochrane-Mantel-Haenszel chi-square test, stratified by the randomization stratification factors, will be used to compare DCR between the two treatment groups, at the one-sided 2.5% level of significance. The p-value to be generated using the Cochrane-Mantel-Haenszel chi-square test is considered nominal, and not to be considered confirmatory as it is not part of the testing strategy. The SAP will advise on how to proceed in case of few events in any stratum.

[5] = All grades (CTCAE v5.0), randomized treatment period, Safety Set
[6] = Grade 3/4 (CTCAE v5.0), randomized treatment period, Safety Set
[7] = central review, Full Analysis Set

## C[C@@H](O)[C@H](NC(=O)[C@@H]1CSSC[C@H](NC(=O)[C@@H](Cc2ccccc2)NC(=O)CN2CCN(CC(=O)[O-])CCN(CC(=O)[O-])CCN(CC(=O)[O-])CC2)C(=O)N[C@@H](Cc2ccc(O)cc2)C(=O)N[C@H](Cc2c[nH]c3ccccc23)C(=O)N[C@@H](CCCCN)C(=O)N[C@@H]([C@@H](C)O)C(=O)N1)C(=O)O.[177Lu+3] [Lutathera, ^177Lu-DOTA^0-Tyr^3-Octreotate]
[1]; [5]
  Worst post-baseline abnormality: Bilirubin (umol/L)-Increase: 26 (17.7) n (%)
  Worst post-baseline abnormality: Creatinine (umol/L)-Increase: 30 (20.4) n (%)
  Worst post-baseline abnormality: Sodium (mmol/L)-Decrease: 32 (21.8) n (%)
[1]; [6]
  Worst post-baseline abnormality: Gamma Glutamyl Transferase (U/L)-Increase: 38 (25.9) n (%)
[1]; in vivo
  Grade 3/4 biochemical lab abnormality: aspartate aminotransferase increase: 2.7%
  Grade 3/4 biochemical lab abnormality: bilirubin increase: 2.7%
  Worst post-baseline abnormality: Alanine Aminotransferase (U/L)-Increase: 6 (4.1) n (%)
  Worst post-baseline abnormality: Bilirubin (umol/L)-Increase: 4 (2.7) n (%)
  Worst post-baseline abnormality: Creatinine (umol/L)-Increase: 0 n (%)
  Worst post-baseline abnormality: Gamma Glutamyl Transferase (U/L)-Increase: 102 (69.4) n (%)
  Worst post-baseline abnormality: Sodium (mmol/L)-Decrease: 1 (0.7) n (%)
[1]; randomized treatment period
  Grade 3/4 biochemical lab abnormality: GGT increase: 25.9%
[2]; Full Analysis Set
  Reason for End of Randomized Treatment Phase: Death: 4 (2.6) n (%)
  Reason for End of Randomized Treatment Phase: Progressive Disease: 42 (27.8) n (%)
[2]; human, in vivo
  Reason for End of Randomized Treatment Phase: Adverse Event: 8 (5.3) n (%)
  Treatment discontinuation due to adverse event: 5.3%
[2]; randomized period
  discontinuation for progressive disease: 27.8%
[3]; Safety Set
  Number of Subjects who Died (Overall): 32 (21.8) n (%)
  Number of Subjects who Died (Overall), primary reason Adverse Event: 2 (1.4) n (%)
  Number of Subjects who Died (Overall), primary reason Disease under Study: 30 (20.4) n (%)
  Number of Subjects who Died on-treatment in randomized treatment period (within 30 days of last dose), primary reason Disease under Study: 2 (1.4) n (%)
  Number of Subjects who Died on-treatment in re-treatment period (within 30 days of last dose): 0 n (%)
  Number of subjects who died in the post-treatment follow up period: 30 (20.4) n (%)
  Number of subjects who died in the post-treatment follow up period, primary reason Adverse Event: 2 (1.4) n (%)
  Number of subjects who died in the post-treatment follow up period, primary reason Disease under Study: 28 (19.0) n (%)
[3]; during the study
  cause of death: adverse event: 1.4%
  cause of death: disease under study: 20.4%
  subjects died during the study: 21.8%
[3]
  subjects died within 30 days after the last dose: 1.4%
[4]; [7]
  Best Overall Response: Complete Response (CR): 8 (5.3) n (%)
  Best Overall Response: Non-CR/Non-PD: 0 n (%)
  Best Overall Response: Partial Response (PR): 57 (37.7) n (%)
  Best Overall Response: Progressive Disease (PD): 8 (5.3) n (%)
  Best Overall Response: Unknown: 6 (4.0) n (%)
  Disease Control Rate (DCR: CR+PR+SD+Non-CR/Non-PD): 137 (90.7) n (%)
  Overall Response Rate (ORR: CR + PR): 65 (43.0) n (%)

## C[C@@H](O)[C@@H]1NC(=O)[C@H](CCCCN)NC(=O)[C@@H](Cc2c[nH]c3ccccc23)NC(=O)[C@H](Cc2ccccc2)NC(=O)[C@@H](NC(=O)[C@H](N)Cc2ccccc2)CSSC[C@@H](C(=O)N[C@H](CO)[C@@H](C)O)NC1=O [Octreotide LAR, octreotide]
[1]; [5]
  Worst post-baseline abnormality: Alanine Aminotransferase (U/L)-Increase: 38 (52.1) n (%)
  Worst post-baseline abnormality: Albumin (g/L)-Decrease: 17 (23.3) n (%)
  Worst post-baseline abnormality: Alkaline Phosphatase (U/L)-Increase: 40 (54.8) n (%)
  Worst post-baseline abnormality: Aspartate Aminotransferase (U/L)-Increase: 40 (54.8) n (%)
  Worst post-baseline abnormality: Bilirubin (umol/L)-Increase: 17 (23.3) n (%)
  Worst post-baseline abnormality: Calcium Corrected (mmol/L)-Increase: 8 (11.0) n (%)
  Worst post-baseline abnormality: Creatinine (umol/L)-Increase: 15 (20.5) n (%)
  Worst post-baseline abnormality: Potassium (mmol/L)-Decrease: 10 (13.7) n (%)
  Worst post-baseline abnormality: Potassium (mmol/L)-Increase: 16 (21.9) n (%)
  Worst post-baseline abnormality: Sodium (mmol/L)-Decrease: 12 (16.4) n (%)
  Worst post-baseline abnormality: Sodium (mmol/L)-Increase: 6 (8.2) n (%)
[1]; [6]
  Worst post-baseline abnormality: Alanine Aminotransferase (U/L)-Increase: 3 (4.1) n (%)
  Worst post-baseline abnormality: Albumin (g/L)-Decrease: 1 (1.4) n (%)
  Worst post-baseline abnormality: Alkaline Phosphatase (U/L)-Increase: 3 (4.1) n (%)
  Worst post-baseline abnormality: Aspartate Aminotransferase (U/L)-Increase: 5 (6.8) n (%)
  Worst post-baseline abnormality: Bilirubin (umol/L)-Increase: 4 (5.5) n (%)
  Worst post-baseline abnormality: Calcium Corrected (mmol/L)-Increase: 1 (1.4) n (%)
  Worst post-baseline abnormality: Creatinine (umol/L)-Increase: 1 (1.4) n (%)
  Worst post-baseline abnormality: Potassium (mmol/L)-Decrease: 2 (2.7) n (%)
  Worst post-baseline abnormality: Potassium (mmol/L)-Increase: 3 (4.1) n (%)
  Worst post-baseline abnormality: Sodium (mmol/L)-Decrease: 1 (1.4) n (%)
  Worst post-baseline abnormality: Sodium (mmol/L)-Increase: 0 n (%)
[1]; randomized treatment period
  Grade 3/4 biochemical lab abnormality: GGT increase: 28.8%
  Grade 3/4 biochemical lab abnormality: aspartate aminotransferase increase: 6.8%
  Grade 3/4 biochemical lab abnormality: bilirubin increase: 5.5%
[2]; Full Analysis Set
  Reason for End of Randomized Treatment Phase: Adverse Event: 1 (1.3) n (%)
  Reason for End of Randomized Treatment Phase: Death: 4 (5.3) n (%)
  Reason for End of Randomized Treatment Phase: Progressive Disease: 44 (58.7) n (%)
[2]; randomized period
  Treatment discontinuation due to adverse event: 1.3%
  discontinuation for progressive disease: 58.7%
[3]; Safety Set
  Number of Subjects who Died (Overall): 14 (19.2) n (%)
  Number of Subjects who Died (Overall), primary reason Adverse Event: 1 (1.4) n (%)
  Number of Subjects who Died on-treatment in cross-over period (within 30 days of last dose), primary reason Disease under Study: 1 (1.4) n (%)
  Number of Subjects who Died on-treatment in randomized treatment period (within 30 days of last dose), primary reason Disease under Study: 4 (5.5) n (%)
  Number of subjects who died in the post-treatment follow up period: 9 (12.3) n (%)
  Number of subjects who died in the post-treatment follow up period, primary reason Adverse Event: 1 (1.4) n (%)
  Number of subjects who died in the post-treatment follow up period, primary reason Disease under Study: 8 (11.0) n (%)
[3]; during the study
  cause of death: adverse event: 1.4%
  subjects died during the study: 19.2%
[3]
  subjects died within 30 days after the last dose: 5.5%
[4]; listed as High-dose Octreotide
  ORR: 9.3%
[4]; listed as high-dose Octreotide
  ORR: 9.3% (3.8%, 18.3%) for Lutathera vs. high-dose
[4]; [7]
  Best Overall Response: Complete Response (CR): 0 n (%)
  Best Overall Response: Non-CR/Non-PD: 1 (1.3) n (%)
  Best Overall Response: Partial Response (PR): 7 (9.3) n (%)
  Best Overall Response: Progressive Disease (PD): 14 (18.7) n (%)
  Best Overall Response: Unknown: 11 (14.7) n (%)
  Overall Response Rate (ORR: CR + PR): 7 (9.3) n (%)
